{"source": "ChEMBL document CHEMBL5212743", "about": "“Selectivity Literature for EUbOPEN Chemogenomics Library wave 3” (2023)", "key": {"[1]": {"target": "Phosphatidylinositol 4,5-bisphosphate 3-kinase catalytic subunit alpha isoform (Homo sapiens, UniProt P42336)", "assay": "Selectivity interaction (KinomeScan (DiscoverX)) EUB0000744a PIK3CA", "conditions": "at 100 nM"}, "[2]": {"target": "T1, Tyrosine-protein kinase ABL1 (Homo sapiens, UniProt P00519)", "T1 sequence (P00519 whole entry)": "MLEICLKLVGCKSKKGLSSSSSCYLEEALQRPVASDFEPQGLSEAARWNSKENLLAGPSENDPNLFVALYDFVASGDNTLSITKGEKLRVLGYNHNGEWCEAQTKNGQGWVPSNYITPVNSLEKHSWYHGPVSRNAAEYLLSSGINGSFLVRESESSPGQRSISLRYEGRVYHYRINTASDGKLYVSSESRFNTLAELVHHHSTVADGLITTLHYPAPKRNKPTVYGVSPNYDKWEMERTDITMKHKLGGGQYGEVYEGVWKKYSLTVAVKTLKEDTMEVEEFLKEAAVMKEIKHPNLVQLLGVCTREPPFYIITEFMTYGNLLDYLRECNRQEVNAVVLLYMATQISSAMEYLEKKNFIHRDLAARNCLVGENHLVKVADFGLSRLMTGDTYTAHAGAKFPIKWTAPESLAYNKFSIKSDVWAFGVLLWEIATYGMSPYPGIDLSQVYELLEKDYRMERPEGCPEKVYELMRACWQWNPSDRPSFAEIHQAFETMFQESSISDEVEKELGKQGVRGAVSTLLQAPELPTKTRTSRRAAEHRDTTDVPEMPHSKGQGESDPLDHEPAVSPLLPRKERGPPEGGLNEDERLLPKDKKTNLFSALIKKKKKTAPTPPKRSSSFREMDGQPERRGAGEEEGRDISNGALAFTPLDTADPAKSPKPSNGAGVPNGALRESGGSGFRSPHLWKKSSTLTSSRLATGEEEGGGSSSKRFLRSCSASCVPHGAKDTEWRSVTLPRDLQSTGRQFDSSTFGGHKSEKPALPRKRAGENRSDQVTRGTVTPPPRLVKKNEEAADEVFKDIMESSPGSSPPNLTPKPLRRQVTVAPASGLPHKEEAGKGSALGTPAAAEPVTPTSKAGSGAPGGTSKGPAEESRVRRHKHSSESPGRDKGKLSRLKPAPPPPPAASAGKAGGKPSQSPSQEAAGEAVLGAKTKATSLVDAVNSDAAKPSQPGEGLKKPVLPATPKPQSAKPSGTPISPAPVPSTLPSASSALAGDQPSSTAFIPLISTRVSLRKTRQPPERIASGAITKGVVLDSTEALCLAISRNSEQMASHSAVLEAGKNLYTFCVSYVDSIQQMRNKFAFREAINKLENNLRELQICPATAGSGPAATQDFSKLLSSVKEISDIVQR", "assay": "Selectivity interaction (KinomeScan (DiscoverX)) EUB0000744a ABL1", "conditions": "at 100 nM"}, "[3]": {"target": "T2, Dual specificity tyrosine-phosphorylation-regulated kinase 1B (Homo sapiens, UniProt Q9Y463)", "T2 sequence (Q9Y463 whole entry, looked up)": "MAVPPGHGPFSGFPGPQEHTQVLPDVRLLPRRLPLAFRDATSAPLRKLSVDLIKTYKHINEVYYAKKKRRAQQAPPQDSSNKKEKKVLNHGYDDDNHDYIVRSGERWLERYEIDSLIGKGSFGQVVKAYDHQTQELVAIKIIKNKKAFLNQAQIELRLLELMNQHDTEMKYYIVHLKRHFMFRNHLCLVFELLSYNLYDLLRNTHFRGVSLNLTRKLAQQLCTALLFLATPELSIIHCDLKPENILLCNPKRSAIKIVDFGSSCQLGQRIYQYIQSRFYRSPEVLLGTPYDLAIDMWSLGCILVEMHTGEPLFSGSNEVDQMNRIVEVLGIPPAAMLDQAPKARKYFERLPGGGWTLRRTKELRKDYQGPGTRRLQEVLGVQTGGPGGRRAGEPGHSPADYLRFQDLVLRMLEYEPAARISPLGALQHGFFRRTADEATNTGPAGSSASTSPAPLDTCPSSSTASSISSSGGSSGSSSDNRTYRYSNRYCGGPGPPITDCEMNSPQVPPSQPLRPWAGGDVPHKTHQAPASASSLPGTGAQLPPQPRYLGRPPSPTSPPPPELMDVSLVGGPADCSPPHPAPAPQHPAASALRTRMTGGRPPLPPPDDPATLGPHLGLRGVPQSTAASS", "assay": "Selectivity interaction (KinomeScan (DiscoverX)) EUB0000733a DYRK1B", "conditions": "at 1 µM"}, "[4]": {"target": "T1, Tyrosine-protein kinase ABL1", "assay": "Selectivity interaction (KiNativ profiling (A375 live cells treatment assays)) EUB0000238b ABL1", "conditions": "at 1 µM"}, "[5]": {"target": "Tyrosine-protein kinase ABL2 (Homo sapiens) (UniProt P42684)", "sequence (P42684 whole entry)": "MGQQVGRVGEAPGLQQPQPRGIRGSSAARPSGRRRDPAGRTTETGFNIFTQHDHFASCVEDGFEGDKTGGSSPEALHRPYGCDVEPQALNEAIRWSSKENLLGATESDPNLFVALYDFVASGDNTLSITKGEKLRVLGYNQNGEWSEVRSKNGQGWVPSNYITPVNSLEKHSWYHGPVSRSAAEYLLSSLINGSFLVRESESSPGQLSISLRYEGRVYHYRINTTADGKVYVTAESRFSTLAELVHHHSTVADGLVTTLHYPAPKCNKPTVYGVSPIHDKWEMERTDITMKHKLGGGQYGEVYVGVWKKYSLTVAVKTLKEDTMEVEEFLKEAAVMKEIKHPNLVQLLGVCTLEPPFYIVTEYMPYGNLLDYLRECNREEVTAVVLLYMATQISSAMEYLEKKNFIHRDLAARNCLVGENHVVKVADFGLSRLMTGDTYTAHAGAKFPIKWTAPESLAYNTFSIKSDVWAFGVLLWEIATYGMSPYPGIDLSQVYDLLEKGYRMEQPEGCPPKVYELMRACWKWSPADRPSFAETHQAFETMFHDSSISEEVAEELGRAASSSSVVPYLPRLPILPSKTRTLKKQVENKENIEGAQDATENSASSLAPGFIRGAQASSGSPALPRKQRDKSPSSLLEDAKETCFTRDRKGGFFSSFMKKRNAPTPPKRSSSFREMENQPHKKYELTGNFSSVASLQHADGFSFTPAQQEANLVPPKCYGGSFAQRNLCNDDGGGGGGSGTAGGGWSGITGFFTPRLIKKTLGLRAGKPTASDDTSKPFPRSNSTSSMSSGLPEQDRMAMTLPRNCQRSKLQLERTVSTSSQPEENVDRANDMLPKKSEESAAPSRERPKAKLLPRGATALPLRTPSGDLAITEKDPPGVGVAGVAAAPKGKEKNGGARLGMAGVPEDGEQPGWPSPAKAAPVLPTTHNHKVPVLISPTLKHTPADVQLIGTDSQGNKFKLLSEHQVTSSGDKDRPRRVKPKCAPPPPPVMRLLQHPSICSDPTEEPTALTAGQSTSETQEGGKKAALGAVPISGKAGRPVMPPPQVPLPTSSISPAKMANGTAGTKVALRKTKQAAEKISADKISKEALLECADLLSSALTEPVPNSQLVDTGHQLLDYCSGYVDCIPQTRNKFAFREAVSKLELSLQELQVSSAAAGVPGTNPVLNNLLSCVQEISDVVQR", "assay": "Selectivity interaction (KiNativ profiling (A375 live cells treatment assays)) EUB0000238b ABL2", "conditions": "at 1 µM"}, "[6]": {"target": "Muscarinic acetylcholine receptor M3 (Homo sapiens) (UniProt P20309)", "sequence (P20309 whole entry, looked up)": "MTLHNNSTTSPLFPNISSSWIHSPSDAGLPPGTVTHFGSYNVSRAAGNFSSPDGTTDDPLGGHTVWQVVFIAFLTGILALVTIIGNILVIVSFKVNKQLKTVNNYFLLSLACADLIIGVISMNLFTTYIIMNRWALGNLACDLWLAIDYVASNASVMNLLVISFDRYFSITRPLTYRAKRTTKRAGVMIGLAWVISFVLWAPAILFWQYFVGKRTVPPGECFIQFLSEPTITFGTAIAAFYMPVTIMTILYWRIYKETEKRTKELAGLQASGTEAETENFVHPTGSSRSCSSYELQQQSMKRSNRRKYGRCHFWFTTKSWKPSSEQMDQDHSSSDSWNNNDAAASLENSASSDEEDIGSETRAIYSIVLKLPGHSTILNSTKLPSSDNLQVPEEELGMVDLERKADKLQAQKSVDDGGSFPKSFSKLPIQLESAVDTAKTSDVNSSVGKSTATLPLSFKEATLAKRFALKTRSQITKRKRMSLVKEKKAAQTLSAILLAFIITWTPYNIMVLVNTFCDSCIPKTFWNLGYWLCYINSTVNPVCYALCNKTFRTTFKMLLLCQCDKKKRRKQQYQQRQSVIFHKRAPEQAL", "assay": "Selectivity interaction (GPCR panel (PDSP screen)) EUB0000546a CHRM3", "conditions": "at 10 µM"}, "[7]": {"target": "T3, Gamma-aminobutyric acid receptor subunit alpha-1 (Homo sapiens) (UniProt P14867)", "T3 sequence (whole entry)": "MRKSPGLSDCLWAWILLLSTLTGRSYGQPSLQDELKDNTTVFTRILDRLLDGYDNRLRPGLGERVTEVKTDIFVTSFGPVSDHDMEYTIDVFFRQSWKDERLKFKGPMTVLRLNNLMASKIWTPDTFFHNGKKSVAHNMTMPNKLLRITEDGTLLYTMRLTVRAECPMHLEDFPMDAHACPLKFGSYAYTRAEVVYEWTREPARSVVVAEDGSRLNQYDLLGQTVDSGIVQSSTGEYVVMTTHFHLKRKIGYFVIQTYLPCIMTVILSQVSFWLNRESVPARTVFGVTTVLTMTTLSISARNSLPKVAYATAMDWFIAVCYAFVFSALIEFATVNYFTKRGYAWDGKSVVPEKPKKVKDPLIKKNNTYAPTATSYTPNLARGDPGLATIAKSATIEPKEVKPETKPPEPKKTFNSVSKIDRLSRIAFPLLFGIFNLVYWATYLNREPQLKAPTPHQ", "assay": "Selectivity interaction (GPCR panel (PDSP screen)) EUB0000546a GABRA1", "conditions": "at 10 µM"}, "[8]": {"target": "Ribosomal protein S6 kinase alpha-5 (Homo sapiens) (UniProt O75582)", "sequence (O75582 whole entry, looked up)": "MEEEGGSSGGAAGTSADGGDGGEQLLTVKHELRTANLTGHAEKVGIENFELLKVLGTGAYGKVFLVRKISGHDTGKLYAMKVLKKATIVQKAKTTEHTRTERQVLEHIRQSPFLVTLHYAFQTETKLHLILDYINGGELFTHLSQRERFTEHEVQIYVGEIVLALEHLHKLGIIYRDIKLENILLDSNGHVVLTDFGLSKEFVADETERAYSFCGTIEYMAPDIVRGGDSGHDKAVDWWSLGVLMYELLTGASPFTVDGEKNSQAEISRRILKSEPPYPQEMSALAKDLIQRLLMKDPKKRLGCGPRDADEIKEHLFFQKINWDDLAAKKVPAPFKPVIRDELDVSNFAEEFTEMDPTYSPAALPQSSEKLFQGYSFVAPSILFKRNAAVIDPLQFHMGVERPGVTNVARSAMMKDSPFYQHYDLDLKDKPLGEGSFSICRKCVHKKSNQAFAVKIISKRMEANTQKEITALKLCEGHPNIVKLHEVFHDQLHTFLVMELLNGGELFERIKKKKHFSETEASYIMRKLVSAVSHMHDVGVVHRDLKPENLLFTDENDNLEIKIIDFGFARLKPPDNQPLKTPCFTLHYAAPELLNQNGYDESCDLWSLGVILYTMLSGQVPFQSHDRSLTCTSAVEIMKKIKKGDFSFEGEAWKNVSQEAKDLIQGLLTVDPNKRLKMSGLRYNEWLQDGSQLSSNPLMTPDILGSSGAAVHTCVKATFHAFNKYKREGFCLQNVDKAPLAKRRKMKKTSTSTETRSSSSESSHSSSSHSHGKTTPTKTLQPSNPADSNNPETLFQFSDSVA", "assay": "Selectivity interaction (KinomeScan (DiscoverX)) EUB0000722a RPS6KA5", "conditions": "at 1 µM"}, "[9]": {"target": "Epidermal growth factor receptor (Homo sapiens, UniProt P00533)", "assay": "Selectivity interaction (KinomeScan (DiscoverX)) EUB0000722a EGFR", "conditions": "at 1 µM"}, "[10]": {"target": "T2, Dual specificity tyrosine-phosphorylation-regulated kinase 1B", "assay": "Selectivity interaction (KinomeScan (DiscoverX)) EUB0000313b DYRK1B", "conditions": "at 1 µM"}, "[11]": {"target": "Dual specificity tyrosine-phosphorylation-regulated kinase 1A (Homo sapiens, UniProt Q13627)", "assay": "Selectivity interaction (KinomeScan (DiscoverX)) EUB0000313b DYRK1A", "conditions": "at 1 µM"}}}
{"smiles": "CC(C)CC(=O)N1CCc2nc(-c3ccc(Br)cc3)nc(N(C)Cc3ccccc3)c2C1", "values": [{"measurement": "% of control", "setting": "[1]", "value": 53, "unit": "%"}, {"measurement": "% of control", "setting": "[2]", "value": 53, "unit": "%"}]}
{"smiles": "FC(F)(F)c1ccc2c(c1)nc(-c1cccnc1)n2C1CC1", "values": [{"measurement": "% of control", "setting": "[3]", "value": 53, "unit": "%"}]}
{"smiles": "CNc1cc(Oc2cc(C(=O)Nc3cc(N4CCN(C)CC4)cc(C(F)(F)F)c3)ccc2C)ncn1", "values": [{"measurement": "% of inhibition", "setting": "[4]", "value": 49, "unit": "%"}, {"measurement": "% of inhibition", "setting": "[5]", "value": 49, "unit": "%"}]}
{"smiles": "C[C@H](c1ccc(F)cc1)N(Cc1ccc(Cl)c(C(=O)O)c1)C(=O)c1cnc2ccccc2c1", "values": [{"measurement": "% of inhibition", "setting": "[6]", "value": 39, "unit": "%"}, {"measurement": "% of inhibition", "setting": "[7]", "value": 28, "unit": "%"}]}
{"smiles": "CCN(Cc1ccc(Cl)cc1)c1ncc(C(=O)NCCCN2CCCC2=O)c(NC2CCCC2)n1", "values": [{"measurement": "% of control", "setting": "[8]", "value": 35, "unit": "%"}, {"measurement": "% of control", "setting": "[9]", "value": 27, "unit": "%"}]}
{"smiles": "CC(C)(O)c1cncc(-c2nc3ccc(F)cc3n2C2CC2)c1", "values": [{"measurement": "% of control", "setting": "[10]", "value": 44, "unit": "%"}, {"measurement": "% of control", "setting": "[11]", "value": 48, "unit": "%"}]}
